Test: Cytotoxicity against human OVCAR5 cells assessed as growth inhibition at 10 uM after 48 hrs by SRB assay
Assay type: functional
Conditions: OVCAR-5, 48 h, read-out: GI

SMILES	inhibition of growth at 10 µM [%]
C=C1CC[C@@H]2[C@](C)(COC(C)=O)[C@H](OC(C)=O)CC[C@@]2(C)[C@@H]1CC(NCCCCCCCC)C1=CCOC1=O (mixture of isomers)	6.77
C=C1CC[C@@H]2[C@](C)(COC(C)=O)[C@H](OC(C)=O)CC[C@@]2(C)[C@@H]1CC(NCCCC)C1=CCOC1=O (mixture of isomers)	4.96

— ChEMBL document CHEMBL3734705, “Synthesis and in vitro cytotoxicity of novel C-12 substituted-14-deoxy-andrographolide derivatives as potent anti-cancer agents” (2015)
